Experimental data published in patent US20250129080A1, “COMPOSITIONS AND METHODS OF USING THE SAME FOR TREATMENT OF NEURODEGENERATIVE AND MITOCHONDRIAL DISEASE” (Mitokinin, Inc., priority 2021, published 2025).

Key:
SKOV3 cells = assay: In vitro mitosafety (glucose/galactose) assay; format: cell-based; conditions: highest mito-safe dose (gal/glc >0.80, IC20, SKOV3 cells, 20 hours) divided by mt-Keima EC50
Description: Briefly, SKOV3 cells (ATCC HTB-77) were plated in DMEM (Corning 10-013-CV) medium containing 25 mM glucose or DMEM with no glucose (Gibco 11966-025) supplemented with 10 mMV galactose at 9,000 cells/well in 96 well plates (Corning costar 3610). 24 hrs later, compounds, in DMSO, were added at various concentrations to a final 0.1% DMSO for all wells. […] After a 15 minute incubation cellular ATP levels were read out using a Promega GloMax® DiscoverMicroplate Reader.
The ratio of relative CellTiter-Glo values from cells grown in galactose to cells grown in glucose was determined (gal/glc ratio). The gal/glc ratio vs concentration is then graphed, and non-linear regression is used to find the highest concentration of MTK compound at which gal/glc >0.80 (the “highest mito-safe dose”, or IC20).

[1] = test system: HeLa cells expressing mt-Keima and YFP-Parkin (HeLa MKYP); assay: Human mt-Keima mitophagy assay; format: cell-based; conditions: Homo sapiens, HeLa, 16 hrs with compound, then FCCP/oligomycin for 6 hours, FACS
Description: Briefly, HeLa cells expressing mt-Keima and YFP-Parkin (HeLa MKYP) were plated at 10,000 cells/well in 96 well plates along with compounds at various concentrations. Following 16 hrs of incubation, cells were treated with […] FCCP/oligomycin for 6 hours, then analyzed via FACS for the presence of mitochondria in lysosomes (as determined by an emissions spectrum shift from the pH-sensitive mt-Keima tag).

Structure (SMILES) | Mito-Safety Index (highest safe dose/EC50) (SKOV3 cells) | EC50 [1] [nM]
FC(F)C1CCN([C@H]2COc3ccccc3[C@@H]2Nc2ncnc3[nH]c(C(F)(F)F)cc23)C1 (stereo partly drawn) [EP-0043845, N-((3R,4S)-3-(3-(Difluoromethyl)Pyrrolidin-1-Yl)Chroman-4-Yl)-6-(Trifluoromethyl)-7H-Pyrrolo[2,3-D]Pyrimidin-4-Amine] | 95.0 | 40
C[C@@H]1CN([C@H]2COc3cc(F)ccc3[C@@H]2Nc2ncnc3c2cc(C(F)(F)F)n3C)CCO1 [EP-0043854, N-((3R,4S)-7-fluoro-3-((R)-2-methylmorpholino)chroman-4-yl)-7-methyl-6-(trifluoromethyl)-7H-pyrrolo[2,3-d]pyrimidin-4-amine] | 99.6 | 250
C[C@@H]1CN([C@H]2COc3cccc(F)c3[C@@H]2Nc2ncnc3[nH]c(C(F)(F)F)cc23)CCO1 [EP-0043859, N-((3R,4S)-5-fluoro-3-((R)-2-methylmorpholino)chroman-4-yl)-6-(trifluoromethyl)-7H-pyrrolo[2,3-d]pyrimidin-4-amine] | 31.4 | 70
C[C@@H]1CN([C@H]2COc3ccc(F)cc3[C@@H]2Nc2ncnc3[nH]c(C(F)(F)F)cc23)CCO1 [EP-0043863, N-((3R,4S)-6-fluoro-3-((R)-2-methylmorpholino)chroman-4-yl)-6-(trifluoromethyl)-7H-pyrrolo[2,3-d]pyrimidin-4-amine] | 40.0 | 170
FC(F)(F)O[C@H]1CCN([C@H]2COc3ccccc3[C@@H]2Nc2ncnc3[nH]c(C(F)(F)F)cc23)C1 [EP-0043865, N-((3R,4S)-3-((S)-3-(trifluoromethoxy)pyrrolidin-1-yl)chroman-4-yl)-6-(trifluoromethyl)-7H-pyrrolo[2,3-d]pyrimidin-4-amine] | 44.4 | 90
F[C@H]1CCN([C@H]2COc3ccccc3[C@@H]2Nc2nccc3[nH]c(C(F)(F)F)cc23)C1 [EP-0043870, N-((3R,4S)-3-((S)-3-fluoropyrrolidin-1-yl)chroman-4-yl)-2-(trifluoromethyl)-1H-pyrrolo[3,2-c]pyridin-4-amine] | 67.5 | 120
FC(F)(F)c1cc2c(N[C@H]3c4ccccc4OC[C@@H]3N3CCCC3)nccc2[nH]1 [EP-0043873, N-((3R,4S)-3-(pyrrolidin-1-yl)chroman-4-yl)-2-(trifluoromethyl)-1H-pyrrolo[3,2-c]pyridin-4-amine] | 71.5 | 130
FC(F)(F)c1cc2c(N[C@H]3c4ccccc4OC[C@@H]3N3CCOC4(CC4)C3)nccc2[nH]1 [EP-0043895, N-((3R,4S)-3-(4-oxa-7-azaspiro[2.5]octan-7-yl)chroman-4-yl)-2-(trifluoromethyl)-1H-pyrrolo[3,2-c]pyridin-4-amine] | 94.7 | 170
COC1CN([C@H]2COc3ccccc3[C@@H]2Nc2nccc3[nH]c(C(F)(F)F)cc23)C1 [EP-0043896, N-((3R,4S)-3-(3-methoxyazetidin-1-yl)chroman-4-yl)-2-(trifluoromethyl)-1H-pyrrolo[3,2-c]pyridin-4-amine] | 126.7 | 150
FC1CN([C@H]2COc3ccccc3[C@@H]2Nc2nccc3[nH]c(C(F)(F)F)cc23)C1 [EP-0043908, N-((3R,4S)-3-(3-fluoroazetidin-1-yl)chroman-4-yl)-2-(trifluoromethyl)-1H-pyrrolo[3,2-c]pyridin-4-amine] | 125.0 | 200
Fc1ccc2c(c1)OC[C@H](N1CCC3(CC3)C1)[C@H]2Nc1ncnc2[nH]c(C(F)(F)F)cc12 [EP-0043913, N-((3R,4S)-7-fluoro-3-(5-azaspiro[2.4]heptan-5-yl)chroman-4-yl)-6-(trifluoromethyl)-7H-pyrrolo[2,3-d]pyrimidin-4-amine] | 67.6 | 370
C[C@@H]1CN([C@H]2COc3cc(F)ccc3[C@@H]2Nc2ncnc3[nH]c(C4CCC4)cc23)CCO1 [EP-0044008, 6-cyclobutyl-N-((3R,4S)-7-fluoro-3-((R)-2-methylmorpholino)chroman-4-yl)-7H-pyrrolo[2,3-d]pyrimidin-4-amine] | 2500.0 | 10
